What was measured:
Type in all cases: in vivo
[1] = test system: galium (catchweed bedstraw, Galium aparine); test: Test A postemergence, galium; conditions: Postemergence; for Galium plant response rating: 500 g ai/ha, visual injury vs untreated controls after approx. 10 days
How it was run: (§1)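 Pots: loam soil/sand blend. Pre: directed soil spray at planting. Post: plants 2–10 cm, 1–2 leaf stage. Formulation: non-phytotoxic solvent + surfactant.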

[2] = test system: Ryegrass, Italian (Italian ryegrass, Lolium multiflorum); test: Test A preemergence, Ryegrass, Italian; conditions: Preemergence; for Plant response rating, Ryegrass, Italian: 0 to 100 scale (0 no effect, 100 complete control); for Ryegrass, Italian plant response rating: 125 g ai/ha, visual injury on 0 to 100 scale (0 no effect, 100 complete control), approximately 10 days
How it was run: (§2)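 Compounds in non-phytotoxic solvent with surfactant. Soil: loam/sand. Preemergence via directed soil spray after seeding; postemergence on seedlings 2–10 cm, one- to two-leaf.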

[3] = test system: ragweed (common ragweed, Ambrosia artemisiifolia); test: Test A postemergence, ragweed; conditions: Postemergence; for Ragweed plant response rating: 500 g ai/ha, visual injury vs untreated controls after approx. 10 days
How it was run: as §2

[4] = test system: Foxtail, Giant (giant foxtail, Setaria faberi); test: Test A postemergence, Foxtail, Giant; conditions: Postemergence; for Foxtail, Giant plant response rating: 500 g ai/ha, visual injury vs untreated controls after approx. 10 days
How it was run: as §2

[5] = test system: barnyardgrass (Echinochloa crus-galli); test: Test A preemergence, barnyardgrass; conditions: Preemergence; for Plant response rating, Barnyardgrass: 0 to 100 scale (0 no effect, 100 complete control); for Barnyardgrass plant response rating: 125 g ai/ha, visual injury on 0 to 100 scale (0 no effect, 100 complete control), approximately 10 days
How it was run: as §2

[6] = test system: barnyardgrass (Echinochloa crus-galli); test: Test A postemergence, barnyardgrass; conditions: Postemergence, 0 to 100 scale (0 no effect, 100 complete control); for Barnyardgrass plant response rating: 500 g ai/ha, visual injury vs untreated controls after approx. 10 days
How it was run: as §1

[7] = test system: pigweed (Amaranthus retroflexus); test: Test A postemergence, pigweed; conditions: Postemergence; for Pigweed plant response rating: 500 g ai/ha, visual injury vs untreated controls after approx. 10 days
How it was run: as §2

[8] = test system: kochia (Bassia scoparia); test: Test A preemergence, kochia; conditions: Preemergence; for Plant response rating, Kochia: 0 to 100 scale (0 no effect, 100 complete control); for Kochia plant response rating: 125 g ai/ha, visual injury on 0 to 100 scale (0 no effect, 100 complete control), approximately 10 days
How it was run: as §2

[9] = test system: blackgrass (Alopecurus myosuroides); test: Test A postemergence, blackgrass; conditions: Postemergence, 0 to 100 scale (0 no effect, 100 complete control); for Blackgrass plant response rating: 500 g ai/ha, visual injury vs untreated controls after approx. 10 days
How it was run: as §2

[10] = test system: ragweed (common ragweed, Ambrosia artemisiifolia); test: Test A preemergence, ragweed; conditions: Preemergence; for Plant response rating, Ragweed: 0 to 100 scale (0 no effect, 100 complete control); for Ragweed plant response rating: 125 g ai/ha, visual injury on 0 to 100 scale (0 no effect, 100 complete control), approximately 10 days
How it was run: as §2

[11] = test system: Foxtail, Giant (giant foxtail, Setaria faberi); test: Test A preemergence, Foxtail, Giant; conditions: Preemergence; for Plant response rating, Foxtail, Giant: 0 to 100 scale (0 no effect, 100 complete control); for Foxtail, Giant plant response rating: 125 g ai/ha, visual injury on 0 to 100 scale (0 no effect, 100 complete control), approximately 10 days
How it was run: as §2

[12] = test system: kochia (Bassia scoparia); test: Test A postemergence, kochia; conditions: Postemergence; for Kochia plant response rating: 500 g ai/ha, visual injury vs untreated controls after approx. 10 days
How it was run: as §2

[13] = test system: wheat (Triticum aestivum); test: Test A postemergence, wheat; conditions: Postemergence; for Wheat plant response rating: 500 g ai/ha, visual injury vs untreated controls after approx. 10 days
How it was run: as §1

[14] = test system: Ryegrass, Italian (Italian ryegrass, Lolium multiflorum); test: Test A postemergence, Ryegrass, Italian; conditions: Postemergence; for Ryegrass, Italian plant response rating: 500 g ai/ha, visual injury vs untreated controls after approx. 10 days
How it was run: as §2

[15] = test system: pigweed (Amaranthus retroflexus); test: Test A preemergence, pigweed; conditions: for Plant response rating, Pigweed: 0 to 100 scale (0 no effect, 100 complete control); for Pigweed plant response rating: 125 g ai/ha, visual injury on 0 to 100 scale (0 no effect, 100 complete control), approximately 10 days
How it was run: as §1

[16] = test system: corn (Zea mays); test: Test A postemergence, corn; conditions: Postemergence; for Corn plant response rating: 500 g ai/ha, visual injury vs untreated controls after approx. 10 days
How it was run: as §2

[17] = 31 g ai/ha, visual injury on 0 to 100 scale (0 no effect, 100 complete control), approx. 10 days
[18] = 125 g ai/ha, visual injury approx. 10 days, 0 to 100 scale (0 no effect, 100 complete control)
[19] = 31 g ai/ha, visual injury, approx. 10 days
[20] = 125 g ai/ha, 0 to 100 scale (0 no effect, 100 complete control)
[21] = 125 g ai/ha, visual injury approx. 10 days
[22] = 0 to 100 scale (0 no effect, 100 complete control)

## CCCCC(=O)OCN(c1cc(C2=NOC3(CCCC3)C2)c(C)cc1C)S(=O)(=O)C(F)(F)F [Compound 143]
[1]; [17]
  Plant response rating, Galium: 50
[1]; [18]
  Plant response rating, Galium: 40
[2]; [19]
  Plant response rating, Ryegrass, Italian: 90
[2]
  Ryegrass, Italian plant response rating: 90
[3]; [17]
  Plant response rating, Ragweed: 0
[3]; [20]
  Plant response rating, Ragweed: 10
[4]; [17]
  Plant response rating, Foxtail, Giant: 0
[4]; [18]
  Plant response rating, Foxtail, Giant: 30
[5]; [19]
  Plant response rating, Barnyardgrass: 80
[5]
  Barnyardgrass plant response rating: 90
[6]; 31 g ai/ha
  Plant response rating, Barnyardgrass: 0
[6]; [21]
  Plant response rating, Barnyardgrass: 50
[7]; [17]
  Plant response rating, Pigweed: 20
[7]; [20]
  Plant response rating, Pigweed: 40
[8]; [19]
  Plant response rating, Kochia: 0
[8]
  Kochia plant response rating: 20
[9]; 31 g ai/ha
  Plant response rating, Blackgrass: 60
[9]; [21]
  Plant response rating, Blackgrass: 0
[10]; [19]
  Plant response rating, Ragweed: 0
[10]
  Ragweed plant response rating: 0
[11]; [19]
  Plant response rating, Foxtail, Giant: 50
[11]
  Foxtail, Giant plant response rating: 100
[12]; [17]
  Plant response rating, Kochia: 10
[12]; [18]
  Plant response rating, Kochia: 20
[13]; [17]
  Plant response rating, Wheat: 20
[13]; [20]
  Plant response rating, Wheat: 50
[14]; [17]
  Plant response rating, Ryegrass, Italian: 0
[14]; [20]
  Plant response rating, Ryegrass, Italian: 20
[15]; [19]
  Plant response rating, Pigweed: 60
[15]
  Pigweed plant response rating: 100
[16]; [17]
  Plant response rating, Corn: 0
[16]; [18]
  Plant response rating, Corn: 20

## Cc1cc(C)c(N(S(=O)(=O)C(F)(F)F)S(=O)(=O)C(F)(F)F)cc1C1=NOC2(CCOCC2)C1 [Compound 178]
[1]; [20]
  Plant response rating, Galium: 80
[1]; [22]
  Galium plant response rating: 90
[2]
  Ryegrass, Italian plant response rating: 90
[2]; 500 g ai/ha
  Plant response rating, Ryegrass, Italian: 100
[3]; [20]
  Plant response rating, Ragweed: 40
[3]; [22]
  Ragweed plant response rating: 80
[4]; [20]
  Plant response rating, Foxtail, Giant: 0
[4]; [22]
  Foxtail, Giant plant response rating: 20
[5]
  Barnyardgrass plant response rating: 90
[5]; 500 g ai/ha
  Plant response rating, Barnyardgrass: 100
[6]; 125 g ai/ha
  Plant response rating, Barnyardgrass: 40
[6]
  Barnyardgrass plant response rating: 90
[7]; [20]
  Plant response rating, Pigweed: 60
[7]; [22]
  Pigweed plant response rating: 90
[8]
  Kochia plant response rating: 90
[8]; 500 g ai/ha
  Plant response rating, Kochia: 100
[9]; 125 g ai/ha
  Plant response rating, Blackgrass: 0
[9]
  Blackgrass plant response rating: 0
[10]
  Ragweed plant response rating: 80
[10]; 500 g ai/ha
  Plant response rating, Ragweed: 90
[11]
  Foxtail, Giant plant response rating: 90
[11]; 500 g ai/ha
  Plant response rating, Foxtail, Giant: 100
[12]; [20]
  Plant response rating, Kochia: 20
[12]; [22]
  Kochia plant response rating: 70
[13]; [20]
  Plant response rating, Wheat: 10
[13]; [22]
  Wheat plant response rating: 30
[14]; [20]
  Plant response rating, Ryegrass, Italian: 0
[14]; [22]
  Ryegrass, Italian plant response rating: 30
[15]
  Pigweed plant response rating: 100
[15]; 500 g ai/ha
  Plant response rating, Pigweed: 100
[16]; [20]
  Plant response rating, Corn: 0
[16]; [22]
  Corn plant response rating: 10

## Cc1cc(C)c(C2=NOC3(CCOCC3)C2)cc1NS(=O)(=O)C(F)(F)F [Compound 177]
[1]; [20]
  Plant response rating, Galium: 90
[1]; [22]
  Galium plant response rating: 90
[2]
  Ryegrass, Italian plant response rating: 100
[2]; 500 g ai/ha
  Plant response rating, Ryegrass, Italian: 100
[3]; [20]
  Plant response rating, Ragweed: 90
[3]; [22]
  Ragweed plant response rating: 90
[4]; [20]
  Plant response rating, Foxtail, Giant: 10
[4]; [22]
  Foxtail, Giant plant response rating: 60
[5]
  Barnyardgrass plant response rating: 80
[5]; 500 g ai/ha
  Plant response rating, Barnyardgrass: 100
[6]; 125 g ai/ha
  Plant response rating, Barnyardgrass: 70
[6]
  Barnyardgrass plant response rating: 90
[7]; [20]
  Plant response rating, Pigweed: 60
[7]; [22]
  Pigweed plant response rating: 90
[8]
  Kochia plant response rating: 100
[8]; 500 g ai/ha
  Plant response rating, Kochia: 100
[9]; 125 g ai/ha
  Plant response rating, Blackgrass: 0
[9]
  Blackgrass plant response rating: 30
[10]
  Ragweed plant response rating: 70
[10]; 500 g ai/ha
  Plant response rating, Ragweed: 90
[11]
  Foxtail, Giant plant response rating: 70
[11]; 500 g ai/ha
  Plant response rating, Foxtail, Giant: 100
[12]; [20]
  Plant response rating, Kochia: 20
[12]; [22]
  Kochia plant response rating: 70
[13]; [20]
  Plant response rating, Wheat: 20
[13]; [22]
  Wheat plant response rating: 80
[14]; [20]
  Plant response rating, Ryegrass, Italian: 40
[14]; [22]
  Ryegrass, Italian plant response rating: 90
[15]
  Pigweed plant response rating: 80
[15]; 500 g ai/ha
  Plant response rating, Pigweed: 100
[16]; [20]
  Plant response rating, Corn: 0
[16]; [22]
  Corn plant response rating: 50
